# Measured values published in patent US5616327A (SRI International, priority 1994, dated 1997).
# Where no end group is shown, it is not given here.
# Molecular target: RNA polymerase-RNA complex ("cores" with transcriptase activity) (Influenza A virus, UniProt P03428+P03431+P03433)
# Assay: biochemical
# Parameters: species or system Influenza virus A/PR/8/34
# Conditions: for inhibition at 0.05 µM / inhibition at 0.5 µM / inhibition at 5 µM / inhibition at 50 µM: read-out: % Inhibition (inhibition of polymerase by peptides)
Compound,inhibition at 0.05 µM,inhibition at 0.5 µM,inhibition at 5 µM,inhibition at 50 µM,"50% inhibition (concentration, in words)","inhibition at 1 µM (1 μM, read-out: % Inhibition (inhibition of polymerase by peptide 6))","inhibition at 10 µM (10 μM, read-out: % Inhibition (inhibition of polymerase by peptide 6))","inhibition at 100 µM (100 μM, read-out: % Inhibition (inhibition of polymerase by peptide 6))","inhibition at 0.001 µM (.001 μM, read-out: % Inhibition (inhibition of polymerase by peptide 6))","inhibition at 0.01 µM (.010 μM, read-out: % Inhibition (inhibition of polymerase by peptide 6))","inhibition at 0.1 µM (.100 μM, read-out: % Inhibition (inhibition of polymerase by peptide 6))"
KREITFHGAKEISLS [Peptide 3],9%,8%,-9%,-30%,–,–,–,–,–,–,–
CC[C@H](C)[C@H](NC(=O)[C@H](CCC(N)=O)NC(=O)[C@H](CCC(=O)O)NC(=O)[C@H](CS)NC(=O)[C@@H](NC(=O)[C@H](C)NC(=O)[C@@H](N)CS)[C@@H](C)O)C(=O)N[C@@H](C)C(=O)N[C@@H](CC(=O)O)C(=O)N[C@@H](CO)C(=O)N[C@@H](CCC(N)=O)C(=O)N[C@@H](Cc1c[nH]cn1)C(=O)N[C@@H](CCCNC(=N)N)C(=O)N[C@@H](CO)C(=O)N[C@@H](Cc1c[nH]cn1)C(=O)N[C@@H](CCCNC(=N)N)C(=O)N[C@@H](CCC(N)=O)C(=O)N[C@@H](CCSC)C(=O)N[C@H](C(=O)O)C(C)C [Peptide 6],–,–,–,–,picomolar range,> 100%,98%,81%,77%,82%,99%
CC[C@H](C)[C@H](NC(=O)[C@H](CCC(N)=O)NC(=O)[C@@H](N)CCC(=O)O)C(=O)N[C@@H](C)C(=O)N[C@@H](CC(=O)O)C(=O)N[C@@H](CO)C(=O)N[C@@H](CCC(N)=O)C(=O)N[C@@H](Cc1c[nH]cn1)C(=O)N[C@@H](CCCNC(=N)N)C(=O)N[C@@H](CO)C(=O)N[C@@H](Cc1c[nH]cn1)C(=O)N[C@@H](CCCNC(=N)N)C(=O)N[C@@H](CCC(N)=O)C(=O)N[C@@H](CCSC)C(=O)N[C@H](C(=O)O)C(C)C [Peptide 4],38%,22%,23%,32%,–,–,–,–,–,–,–
CC(C)C[C@H](NC(=O)CNC(=O)[C@H](C)NC(=O)[C@H](CO)NC(=O)[C@H](CO)NC(=O)[C@H](CO)NC(=O)[C@@H]1CCCN1C(=O)[C@H](Cc1c[nH]cn1)NC(=O)[C@@H](NC(=O)CN)[C@@H](C)O)C(=O)N[C@@H](CCCCN)C(=O)N[C@@H](CC(N)=O)C(=O)N[C@@H](CC(=O)O)C(=O)N[C@@H](CC(C)C)C(=O)N[C@@H](CC(C)C)C(=O)N[C@@H](CCC(=O)O)C(=O)N[C@@H](CC(N)=O)C(=O)O [Peptide 5],16%,14%,1%,-30%,–,–,–,–,–,–,–
LTVPSERGLQRRR [Peptide 1],3%,2%,9%,35%,–,–,–,–,–,–,–
CSCC[C@H](NC(=O)[C@H](CC(N)=O)NC(=O)[C@H](CC(N)=O)NC(=O)[C@@H]1CCCN1C(=O)[C@H](CC(=O)O)NC(=O)CNC(=O)[C@H](CC(N)=O)NC(=O)CNC(=O)[C@H](CC(N)=O)NC(=O)[C@H](CC(C)C)NC(=O)[C@H](C)N)C(=O)N[C@@H](CC(=O)O)C(=O)N[C@@H](CCCCN)C(=O)N[C@@H](C)C(=O)N[C@H](C(=O)N[C@@H](CCCCN)C(=O)N[C@@H](CC(C)C)C(=O)N[C@@H](Cc1ccc(O)cc1)C(=O)O)C(C)C [Peptide 2],-37%,-10%,-20%,-13%,–,–,–,–,–,–,–
